The nature of series [1]: The drug is tested on Z-024 corresponding to pig gut metagenome with ENA study accession number: PRJEB37062 and ENA sample accession number: ERS12561823 for biotransformation under anaerobic condition. The drug concentrations were measured over 9 timepoints collected between 0 and 24 hours of incubation by liquid-chromatography-coupled mass spectrometry (LC–MS). To be noted: 2 µM.

Series [2] in a line: The drug is tested on Z-021 corresponding to metagenome with ENA study accession number: PRJEB37062 and ENA sample accession number: ERS12561820 for biotransformation under anaerobic condition. The drug concentrations were measured over 9 timepoints collected between 0 and 24 hours of incubation by liquid-chromatography-coupled mass spectrometry (LC–MS). To be noted: 2 µM.
A short description of series [3]: The drug is tested on Z-016 corresponding to mouse gut metagenome with ENA study accession number: PRJEB37062 and ENA sample accession number: ERS12561815 for biotransformation under anaerobic condition. The drug concentrations were measured over 9 timepoints collected between 0 and 24 hours of incubation by liquid-chromatography-coupled mass spectrometry (LC–MS). To be noted: 2 µM.

Series [4] is described as follows: The drug is tested on Z-006 corresponding to mouse gut metagenome with ENA study accession number: PRJEB37062 and ENA sample accession number: ERS12561806 for biotransformation under anaerobic condition. The drug concentrations were measured over 9 timepoints collected between 0 and 24 hours of incubation by liquid-chromatography-coupled mass spectrometry (LC–MS). To be noted: 2 µM.

A short description of series [5]: The drug is tested on WLS-350 corresponding to human gut metagenome with ENA study accession number: PRJEB37062 and ENA sample accession number: ERS12561789 for biotransformation under anaerobic condition. The drug concentrations were measured over 9 timepoints collected between 0 and 24 hours of incubation by liquid-chromatography-coupled mass spectrometry (LC–MS). To be noted: 2 µM.

The nature of series [6]: The drug is tested on WLS-220 corresponding to human gut metagenome with ENA study accession number: PRJEB37062 and ENA sample accession number: ERS12561769 for biotransformation under anaerobic condition. The drug concentrations were measured over 9 timepoints collected between 0 and 24 hours of incubation by liquid-chromatography-coupled mass spectrometry (LC–MS). To be noted: 2 µM.

A short description of series [7]: The drug is tested on WLS-170 corresponding to human gut metagenome with ENA study accession number: PRJEB37062 and ENA sample accession number: ERS12561762 for biotransformation under anaerobic condition. The drug concentrations were measured over 9 timepoints collected between 0 and 24 hours of incubation by liquid-chromatography-coupled mass spectrometry (LC–MS). To be noted: 2 µM.

The nature of series [8]: The drug is tested on WLS-073 corresponding to human gut metagenome with ENA study accession number: PRJEB37062 and ENA sample accession number: ERS12561749 for biotransformation under anaerobic condition. The drug concentrations were measured over 9 timepoints collected between 0 and 24 hours of incubation by liquid-chromatography-coupled mass spectrometry (LC–MS). To be noted: 2 µM.

The nature of series [9]: The drug is tested on WLS-038 corresponding to human gut metagenome with ENA study accession number: PRJEB37062 and ENA sample accession number: ERS12561745 for biotransformation under anaerobic condition. The drug concentrations were measured over 9 timepoints collected between 0 and 24 hours of incubation by liquid-chromatography-coupled mass spectrometry (LC–MS). To be noted: 2 µM.

Series [10] can be described thus: The drug is tested on WLS-027 corresponding to human gut metagenome with ENA study accession number: PRJEB37062 and ENA sample accession number: ERS12561744 for biotransformation under anaerobic condition. The drug concentrations were measured over 9 timepoints collected between 0 and 24 hours of incubation by liquid-chromatography-coupled mass spectrometry (LC–MS). To be noted: 2 µM.

Series [11] is described as follows: The drug is tested on WLS-010 corresponding to human gut metagenome with ENA study accession number: PRJEB37062 and ENA sample accession number: ERS12561743 for biotransformation under anaerobic condition. The drug concentrations were measured over 9 timepoints collected between 0 and 24 hours of incubation by liquid-chromatography-coupled mass spectrometry (LC–MS). To be noted: 2 µM.

For series [12] the following is noted: human gut metagenome, 24 h, 2 µM.
The conditions of series [13]: human gut metagenome, 24 h, 2 µM. The source holds these as a separate data set.
For series [14] the following is noted: human gut metagenome, 24 h, 2 µM. This is another data set of the same source.
For series [15] the following is noted: human gut metagenome, 24 h, 2 µM. The source holds these as a separate data set.
For series [16] the following is noted: human gut metagenome, 24 h, 2 µM. This is another data set of the same source.
The conditions of series [17]: human gut metagenome, 24 h, 2 µM. This is another data set of the same source.
For series [18] the following is noted: human gut metagenome, 24 h, 2 µM. The source holds these as a separate data set.
For series [19] the following is noted: human gut metagenome, 24 h, 2 µM. The source holds these as a separate data set.
For series [20] the following is noted: human gut metagenome, 24 h, 2 µM. The source holds these as a separate data set.

Experimental findings from ChEMBL document CHEMBL5724914, “Linking interpersonal differences in gut microbiota composition and drug biotransformation activity” (2024) are described below.

The structures appear in SMILES notation.
Further: call rule not given here.

For `O=P1(N(CCCl)CCCl)NCCCO1` (stereo not given) [CYCLOPHOSPHAMIDE ANHYDROUS], the “Bacterial Biotransformation” value was “Compound NOT metabolized” in series [1]; “Compound NOT metabolized” in series [2]; “Compound NOT metabolized” in series [3]; “Compound NOT metabolized” in [4]; “Compound NOT metabolized” in series [5]; “Compound metabolized” in [6]. Further, the “Bacterial Biotransformation” value is “Compound metabolized” in [7]; “Compound NOT metabolized” in series [8]; “Compound NOT metabolized” in series [9]; “Compound NOT metabolized” in [10]; “Compound NOT metabolized” in series [11]; “Compound NOT metabolized” in series [12]. In addition, the “Bacterial Biotransformation” value is reported as “Compound NOT metabolized” in series [13]; “Compound metabolized” in [14]; “Compound metabolized” in [15]; “Compound metabolized” in series [16]; “Compound metabolized” in [17]; “Compound metabolized” in series [18]. In addition, the “Bacterial Biotransformation” value in series [19] and in series [20] was “Compound metabolized” each time.
Take `CC(C)(C)NCC(O)c1cc(Cl)c(N)c(Cl)c1` (stereo not given) [CLENBUTEROL]: the “Bacterial Biotransformation” value in series [1], in [2], in [3], in series [4], in [5] and in [6] was “Compound NOT metabolized” in each case. The “Bacterial Biotransformation” value in series [7], in [8], in series [9], in [10], in series [11] and in series [12] was “Compound NOT metabolized” throughout. In addition, the “Bacterial Biotransformation” value in series [13], in series [14], in series [15], in series [16], in series [17] and in [18] was “Compound NOT metabolized” throughout. Besides, the “Bacterial Biotransformation” value in series [19] and in series [20] was “Compound NOT metabolized” each time.
For `CN(C)CCOC(C)(c1ccccc1)c1ccccn1.O=C(O)CCC(=O)O` (stereo not given) [DOXYLAMINE SUCCINATE], the “Bacterial Biotransformation” value in series [1], in series [2], in series [3], in series [4], in series [5] and in series [6] was “Compound NOT metabolized” throughout. For the same molecule, the “Bacterial Biotransformation” value in series [7], in series [8], in series [9], in series [10], in series [11] and in [12] was “Compound NOT metabolized” throughout. Further, the “Bacterial Biotransformation” value in [13], in [14], in [15], in series [16], in series [17] and in series [18] was “Compound NOT metabolized” in each case. Besides, the “Bacterial Biotransformation” value in series [19] and in series [20] was “Compound NOT metabolized” each time.
In the case of `CCOc1cc(CC(=O)N[C@@H](CC(C)C)c2ccccc2N2CCCCC2)ccc1C(=O)O` [REPAGLINIDE], the “Bacterial Biotransformation” value in series [1], in series [2], in series [3], in series [4], in series [5] and in series [6] was “Compound metabolized” in each case. In addition, the “Bacterial Biotransformation” value in [7], in series [8], in series [9], in series [10], in series [11] and in series [12] was “Compound metabolized” each time. Also, the “Bacterial Biotransformation” value in series [13] is listed as “Compound metabolized”; in series [14], “Compound metabolized”; in [15], “Compound metabolized”; in [16], “Compound metabolized”; in [17], “Compound NOT metabolized”; in series [18] it was “Compound metabolized”. The “Bacterial Biotransformation” value in series [19] and in series [20] was “Compound metabolized” each time.
For the molecule `CC[C@@]1(O)C(=O)OCc2c1cc1n(c2=O)Cc2cc3c(CN(C)C)c(O)ccc3nc2-1` [TOPOTECAN], the “Bacterial Biotransformation” value in series [1], in series [2], in series [3], in series [4], in [5] and in series [6] was “Compound NOT metabolized” throughout. For the same molecule, the “Bacterial Biotransformation” value in series [7], in series [8], in series [9], in [10], in series [11] and in [12] was “Compound NOT metabolized” each time. Moreover, the “Bacterial Biotransformation” value in [13], in series [14], in [15], in series [16], in series [17] and in series [18] was “Compound NOT metabolized” in each case. For the same molecule, the “Bacterial Biotransformation” value in series [19] and in series [20] was “Compound NOT metabolized” in each case.
For `CC(C)(C)NC(=O)[C@H]1CC[C@H]2[C@@H]3CC[C@H]4NC(=O)C=C[C@]4(C)[C@H]3CC[C@]12C` [FINASTERIDE], the “Bacterial Biotransformation” value is on record as “Compound metabolized” in [1]; “Compound NOT metabolized” in [2]; “Compound metabolized” in [3]; “Compound metabolized” in series [4]; “Compound metabolized” in series [5]; “Compound metabolized” in series [6]. The “Bacterial Biotransformation” value in [7], in [8], in [9], in series [10], in series [11] and in [12] was “Compound metabolized” throughout. Further, the “Bacterial Biotransformation” value in [13] is reported as “Compound metabolized”; in series [14], “Compound metabolized”; in series [15] it was “Compound metabolized”; in series [16], “Compound metabolized”; in series [17], “Compound NOT metabolized”; in series [18], “Compound metabolized”. The “Bacterial Biotransformation” value in series [19] and in series [20] was “Compound metabolized” each time.
